Earlier results in patent US20110046396A1, “POLYMORPHIC FORMS OF FLUVASTATIN SODIUM AND PROCESS FOR PREPARING THE SAME” (JUBILANT ORGANOSYS LIMITED, priority 2005, published 2011).

Settings: compared with Form A or the amorphous form of Fluvastatin sodium; described in U.S. Pat. No. 6,124,340

**Q.** Which hygroscopicity does the source give for `CC(C)n1c(/C=C/[C@H](O)C[C@H](O)CC(=O)[O-])c(-c2ccc(F)cc2)c2ccccc21.[Na+]` (racemic) [Form B, (±)-7-(3-(4-fluorophenyl)-1-(1-methylethyl)-1H-indol-2-yl)-3,5-dihydroxy-6-heptenoic acid monosodium salt] here?
**A.** less hygroscopic than Form A or the amorphous form
